Assay results taken from patent publication US5521193A, “Benzimidazole compounds” (G. D. Searle & Co., priority 1995, dated 1996).

Columns and labels:
5-HT3 = experiment: Bezold-Jarisch Reflex (inhibition of 5-HT-induced bradycardia in anesthetized mice); format: in vivo; settings: i.p., 30 min before 5-HT 0.25 mg/kg i.v.; >50 percent reduction in bradycardic response vs vehicle considered significant; pentobarbital anesthetized mice
Method: (§1) 5-HT4 agonist activity was determined in the in vitro rat tunice muscularis mucosae (TMM) assay. (Baxter et el., Naunyn Schmied Arch. Pharmacol, 1991, 343,439). The 5-HT4 agonist or antagonist activity and/or 5-HT3 antagonist activity of the compounds of the invention herein, can be determined by the assays as described herein, without undue experimention.
The compound to be evaluated was administered i.p. (mg/kg) to a group of 3 mice. […] A greater than 50 percent (>50) reduction in the bradycardic response relative to vehicle-treated control mice was considered significant.
This method has been described by Saxena, P. R. and Lawang, A., Arch. Int. Pharmacodyn., 277:235-252, 1985.
The assay results for the compounds of the present invention and their Minimum Effective Dose (MED) and the reference compounds and their MEDs are recorded in Table I.

5-HT3 receptor = target: T1, 5-HT3 receptor (Rattus norvegicus, UniProt P35563); experiment: Serotonin (5-HT3) radioligand binding, [3H]-GR65630, rat brain cortex membranes; settings: Ki, [3H]-GR65630 0.2 nM; 60 min, 22° C.
T1 construct: Brain cortices were obtained from male rats and a membrane fraction prepared by standard techniques; from tissue; host or cells: rat brain cortex membranes
T1 sequence (P35563 24-483): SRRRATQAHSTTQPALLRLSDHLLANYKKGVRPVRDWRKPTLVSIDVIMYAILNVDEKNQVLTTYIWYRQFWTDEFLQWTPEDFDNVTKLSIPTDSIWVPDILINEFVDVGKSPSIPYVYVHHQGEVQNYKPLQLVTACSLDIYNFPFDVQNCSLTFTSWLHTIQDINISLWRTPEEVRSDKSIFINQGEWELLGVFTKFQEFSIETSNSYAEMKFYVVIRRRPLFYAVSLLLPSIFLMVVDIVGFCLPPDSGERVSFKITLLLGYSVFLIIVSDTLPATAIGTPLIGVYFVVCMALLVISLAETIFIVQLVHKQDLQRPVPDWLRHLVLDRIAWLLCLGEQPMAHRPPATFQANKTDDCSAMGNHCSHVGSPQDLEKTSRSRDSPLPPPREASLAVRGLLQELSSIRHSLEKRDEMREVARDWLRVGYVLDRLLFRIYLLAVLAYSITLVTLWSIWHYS
Method: GR65630 binds to the 5-HT3 receptor. Brain cortices were obtained from male rats and a membrane fraction prepared by standard techniques. 0.04 mg of membrane prep was incubated with 0.2 nM […] for 60 minutes at 22° C. […] Membranes were filtered and washed times and the filters were counted to determine [3H]-GR65630 specifically bound. Kilpatrick G. J., Jones B. J. and Tyers M. B. Identification and distribution of 5-HT3 receptors in rat brain using radioligand binding assay. Nature, 330 : 746-748, 1987.

5-HT4 receptor = target: T2, 5-HT4 receptor (Rattus norvegicus, UniProt Q62758); experiment: biochemical; settings: carbachol (3 μM)-contracted rat esophagus TMM; 37° C.; tissues from 5 rats; read-out: 5-HT4 Agonism (Rat TMM) In Vitro Assay: EC50 Values
T2 construct: One 2 cm segment of intrathoracic esophagus proximal to the diaphragm was removed from male rats; from tissue; host or cells: rat intrathoracic oesophagus, inner tunica muscularis mucosae
Method: as §1
Agonist activity was determined utilizing relaxation of carbachol-contracted rat tunica muscularis mucosae. One 2 cm segment of intrathoracic esophagus proximal to the diaphragm was removed from male rats, weighing approximately 300 gm, and the outer muscle layers removed. The inner tunica muscularis mucosa was mounted under 0.2-0.3 g of tension in a tissue bath containing oxygenated Tyrode's solution at 37° C. […] Following a 30 min equilibrium period, tissues were isometrically contracted with carbachol (3 μM) to obtain a tonic contraction. A stable plateau was obtained within 20 min when test compound was added cumulatively to relax the muscle strip. EC50 values were obtained for each agonist in tissues from 5 rats.

T2 sequence (Q62758 whole entry): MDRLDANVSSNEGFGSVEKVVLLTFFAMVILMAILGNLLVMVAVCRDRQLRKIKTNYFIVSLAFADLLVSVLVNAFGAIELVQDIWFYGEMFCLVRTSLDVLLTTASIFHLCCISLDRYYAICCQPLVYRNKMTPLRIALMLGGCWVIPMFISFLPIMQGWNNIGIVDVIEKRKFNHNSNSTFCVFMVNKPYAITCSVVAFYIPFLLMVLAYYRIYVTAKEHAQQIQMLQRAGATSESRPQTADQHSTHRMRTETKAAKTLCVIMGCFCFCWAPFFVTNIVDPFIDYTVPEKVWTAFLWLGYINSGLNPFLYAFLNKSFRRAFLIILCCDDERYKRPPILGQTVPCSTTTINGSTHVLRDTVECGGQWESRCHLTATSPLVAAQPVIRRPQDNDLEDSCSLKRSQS

SMILES | Minimum Effective Dose (MED) (5-HT3) | Ki (5-HT3 receptor) | EC50 (5-HT4 receptor)
CC(C)n1c(=O)n(C(=O)NC[C@H]2CCN3CCC[C@H]23)c2ccccc21 (relative stereo) [Example 23, cis-N-[(hexahydro-1H-pyrrolizin-1-yl)methyl]-2,3-dihydro-3-(1-methylethyl) 2-oxo-1H-benzimidazole-1-carboxamide] | 1 mg/kg | – | –
CN1C2CCCC1CC(NC(=O)c1nn(C)c3ccccc13)C2 (stereo not drawn) [BRL-43694] | 0.05 mg/kg | – | –
CC(C)n1c(=O)n(C(=O)NCCC23CCCN2CCC3)c2ccccc21 [Example 13, N-[2-(hexahydro-7aH-pyrrolizin-7a-yl)ethyl]-2,3-dihydro-3-(1-methylethyl) 2-oxo-1H-benzimidazole-1-carboxamide] | 10 mg/kg | 120 nM | 179 nM
O=c1[nH]c2ccccc2n1CCCN1CCC(n2c(=O)[nH]c3cc(Cl)ccc32)CC1 [domperidone] | > 10 mg/kg | – | –
CC[C@@H](CO)NC(=O)[C@@H]1C=C2c3cccc4c3c(cn4C)C[C@H]2N(C)C1 [methylsergide] | > 10 mg/kg | – | –
CCN(CC)CCNC(=O)c1cc(Cl)c(N)cc1OC [metoclopramide] | 5 mg/kg | – | –
CN1[C@@H]2C[C@@H](OC(=O)[C@H](CO)c3ccccc3)C[C@H]1[C@@H]1O[C@@H]12 [scopolamine] | 2.5 mg/kg | – | –
